What was measured:
THP-1 = experiment: Antiproliferative activity against human THP-1 cells expressing BRD4 assessed as inhibition of cell growth measured after 3 days by MTT assay; format: functional, cell-based; details: THP-1, 72 h
[1] = molecular target: Poly [ADP-ribose] polymerase 1 (Homo sapiens, UniProt P09874); experiment: Inhibition of PARP1 (unknown origin) using biotinylated NAD+ as substrate by microplate reader method
HCT-116 = experiment: Antiproliferative activity against BRCA2-mutated human HCT-116 cells assessed as inhibition of cell growth measured after 7 days by MTT assay; format: functional, cell-based; details: HCT-116, 168 h
MDA-MB-468 = experiment: Antiproliferative activity against BRCA-proficient human MDA-MB-468 cells assessed as inhibition of cell growth measured after 7 days by MTT assay; format: functional, cell-based; details: MDA-MB-468, 168 h
[2] = molecular target: Bromodomain-containing protein 4 (Homo sapiens, UniProt O60885); experiment: Inhibition of BRD4-BD1/2 (unknown origin)
MDA-MB-231 = experiment: Antiproliferative activity against BRCA-proficient human MDA-MB-231 cells assessed as inhibition of cell growth measured after 7 days by MTT assay; format: functional, cell-based; details: MDA-MB-231, 168 h
CFPAC-1 = experiment: Antiproliferative activity against human CFPAC-1 cells assessed as inhibition of cell growth measured after 4 days by MTT assay; format: functional, cell-based; details: CFPAC-1, 96 h
CAPAN-1 = experiment: Antiproliferative activity against human CAPAN-1 cells assessed as inhibition of cell growth measured after 4 days by MTT assay; format: functional, cell-based; details: CAPAN-1, 96 h
SW1990 = experiment: Antiproliferative activity against human SW1990 cells assessed as inhibition of cell growth measured after 4 days by MTT assay; format: functional, cell-based; details: SW1990, 96 h

Sequence of Poly [ADP-ribose] polymerase 1 (P09874 whole entry): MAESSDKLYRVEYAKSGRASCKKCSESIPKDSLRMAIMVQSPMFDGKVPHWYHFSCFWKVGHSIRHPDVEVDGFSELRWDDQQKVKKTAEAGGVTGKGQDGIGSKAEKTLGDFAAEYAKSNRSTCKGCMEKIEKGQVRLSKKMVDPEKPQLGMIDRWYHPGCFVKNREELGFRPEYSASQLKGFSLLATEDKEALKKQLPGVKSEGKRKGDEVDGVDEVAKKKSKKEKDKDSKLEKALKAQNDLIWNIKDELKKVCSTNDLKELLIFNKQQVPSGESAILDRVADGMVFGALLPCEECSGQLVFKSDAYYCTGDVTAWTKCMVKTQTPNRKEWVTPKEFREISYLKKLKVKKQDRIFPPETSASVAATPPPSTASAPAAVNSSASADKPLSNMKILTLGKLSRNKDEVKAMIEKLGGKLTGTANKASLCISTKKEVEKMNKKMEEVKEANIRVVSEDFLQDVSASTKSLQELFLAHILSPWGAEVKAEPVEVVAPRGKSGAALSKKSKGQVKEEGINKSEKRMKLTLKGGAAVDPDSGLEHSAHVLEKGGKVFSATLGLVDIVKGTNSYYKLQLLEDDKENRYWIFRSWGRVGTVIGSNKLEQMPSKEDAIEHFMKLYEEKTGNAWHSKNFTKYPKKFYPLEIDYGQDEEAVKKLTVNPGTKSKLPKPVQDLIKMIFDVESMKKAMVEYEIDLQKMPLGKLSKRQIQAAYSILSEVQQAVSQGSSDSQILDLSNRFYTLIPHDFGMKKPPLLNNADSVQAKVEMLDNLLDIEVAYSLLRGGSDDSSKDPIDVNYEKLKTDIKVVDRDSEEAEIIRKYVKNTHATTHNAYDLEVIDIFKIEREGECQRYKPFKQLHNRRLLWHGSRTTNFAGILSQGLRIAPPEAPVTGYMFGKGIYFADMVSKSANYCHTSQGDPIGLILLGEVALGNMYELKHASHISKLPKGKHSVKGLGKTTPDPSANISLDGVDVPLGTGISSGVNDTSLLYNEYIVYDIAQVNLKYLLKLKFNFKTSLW

IC50 (THP-1) [nM]	IC50 [1] [nM]	IC50 (HCT-116) [nM]	IC50 (MDA-MB-468) [nM]	IC50 [2] [nM]	IC50 (MDA-MB-231) [nM]	IC50 (SW1990) [nM]	Compound	IC50 (CFPAC-1) [nM]	IC50 (CAPAN-1) [nM]
4090	116	44400	2590	132	8090	–	Cc1noc(C)c1-c1ccc2c(c1)C(c1ccccc1)N(CC(=O)c1nc3c(C(N)=O)cccc3[nH]1)C(=O)N2 (stereo unspecified)	–	–
210	361	3720	1120	43	1320	2520	Cc1noc(C)c1-c1ccc2c(c1)C(c1ccccc1)N(Cc1nc3c(C(N)=O)cccc3[nH]1)C(=O)N2 (stereo unspecified)	2030	2310
1530	112	16900	930	116	2600	–	Cc1noc(C)c1-c1ccc2c(c1)C(c1ccccc1)N(CC(=O)N[C@H](C)c1nc3c(C(N)=O)cccc3[nH]1)C(=O)N2 (stereo partly specified)	–	–
1660	52	16500	1040	90	2630	–	Cc1noc(C)c1-c1ccc2c(c1)C(c1ccccc1)N(CC(=O)N[C@@H](C)c1nc3c(C(N)=O)cccc3[nH]1)C(=O)N2 (stereo partly specified)	–	–
690	62	11800	460	102	920	3880	Cc1noc(C)c1-c1ccc2c(c1)C(c1ccccc1)N(CC(=O)NC(C)(C)c1nc3c(C(N)=O)cccc3[nH]1)C(=O)N2 (stereo unspecified)	2560	3710

Further lines, the molecule ahead of its results:

Compound	IC50 (THP-1) [nM]	IC50 [1] [nM]	IC50 (HCT-116) [nM]	IC50 (MDA-MB-468) [nM]	IC50 [2] [nM]	IC50 (MDA-MB-231) [nM]	IC50 (SW1990) [nM]	IC50 (CFPAC-1) [nM]	IC50 (CAPAN-1) [nM]
Cc1noc(C)c1-c1ccc2c(c1)C(c1ccccc1)N(CC(=O)N[C@@H](C)c1nc3c(C(N)=O)cccc3[nH]1)C(=O)N2C (stereo partly specified)	740	187	5290	380	326	520	–	–	–
Cc1noc(C)c1-c1ccc2c(c1)C(c1ccccc1)N(CC(=O)NC(c1nc3c(C(N)=O)cccc3[nH]1)C(C)C)C(=O)N2 (stereo unspecified)	–	326	–	–	114	–	–	–	–
Cc1noc(C)c1-c1ccc2c(c1)C(c1ccccc1)N(CC(=O)NCc1nc3c(C(N)=O)cccc3[nH]1)C(=O)N2C (stereo unspecified)	–	73	–	–	534	–	–	–	–

Source: ChEMBL document CHEMBL5131471, “Design, synthesis and mechanism studies of novel dual PARP1/BRD4 inhibitors against pancreatic cancer” (Eur J Med Chem, 2022)
